Experimental data from US12329733B2, “Acetyl-leucine or a pharmaceutically acceptable salt thereof for improved mobility and cognitive function” (INTRABIO LTD., priority 2016, dated 2025).

Tests used:
[1] = system: patients with postural imbalance / gait disorder; subjects; assay: clinical examination and patient/family reports of balance, gait, dizziness and falls; format: in vivo, human
From the text: In addition to the mobility assessments disclosed above, mobility in a subject having a mobility disorder associated with ageing may be tested, for example, using assessments of balance and/or through monitoring the number of falls experienced by the subject.

[2] = system: rat model of an acute unilateral labyrinthectomy; details: by activation of the vestibulo-cerebellum and deactivation of the posterolateral thalamus; ref (4); cited from earlier work

| SMILES | improvement during treatment ([1]; Example 2: person, balance disorder, Datscan borderline pathological) | improvement during treatment ([1]; Example 5: patient, progressive gait disorder) | effect on postural compensation [2] |
| --- | --- | --- | --- |
| N[C@@H](Cc1ccc(O)c(O)c1)C(=O)O [L-Dopa] | no improvement was observed | No improvement was observed |  |
| CC(=O)N[C@@H](CC(C)C)C(=O)O [N-acetyl-L-leucine] |  |  | significant effect |
